Test results taken from patent US20080153701A1, “Fungicidal Mixtures” (BASF Aktiengesellschaft, priority 2004, published 2008).
Where two headings read alike, the source gives them in different places.

Legend:
Phytophthora infestans = type: cell-based; conditions: microtiter plate, 405 nm, day 7
Puccinia recondite = experiment: Curative activity against brown rust of wheat (greenhouse); type: in vivo; conditions: wheat seedlings, sprayed 1 day after inoculation, rated after 7 days
Experimental: (§1) The active compounds were separately or jointly prepared as a stock solution comprising 25 mg of active compound which was made up to 10 ml using a mixture of acetone and/or DMSO and the emulsifier Uniperol® EL (wetting agent having emulsifying and dispersing action based on ethoxylated alkylphenols) in a volume ratio of solvent/emulsifier of 99 to 1. The mixture was then made up with water to 100 ml. This stock solution was diluted with the solvent/emulsifier/water mixture described to the concentration of active compounds stated below.
(§2) The visually determined percentages of infected leaf areas were converted into efficacies in % of the untreated control:
(§3) The efficacy (E) is calculated as follows using Abbot's formula: […]
(§4) α corresponds to the fungal infection of the treated plants in % and β corresponds to the fungal infection of the untreated (control) plants in %
(§5) An efficacy of 0 means that the infection level of the treated plants corresponds to that of the untreated control plants; an efficacy of 100 means that the treated plants were not infected.
(§6) The expected efficacies of combinations of active compounds were determined using Colby's formula (Colby, S. R. “Calculating synergistic and antagonistic responses of herbicide combinations”, Weeds, 15, 20-22, 1967) and compared with the observed efficacies.
(§7) E=x+y−x·y/100 • E expected efficacy, expressed in % of the untreated control, when using the mixture of the active compounds A and B at the concentrations a and b • x efficacy, expressed in % of the untreated control, when using the active compound A at the concentration a • y efficacy, expressed in % of the untreated control, when using the active compound B at the concentration b
Leaves of wheat seedlings of the cultivar “Kanzler” cultivated in pots were inoculated with a spore suspension of brown rust (Puccinia recondite). The pots were then placed in a chamber with high atmospheric humidity (90 to 95%) and at 20 to 22° C. for 24 hours. During this time, the spores germinated and the germ tubes penetrated into leaf tissue. The next day, the infected plants were sprayed to runoff point with the solution of active compound described above having the active compound concentration stated below. After the spray coating had dried on, the test plants were cultivated in a greenhouse at temperatures between 20 and 22° C. and at 65 to 70% relative atmospheric humidity for 7 days. The extent of the rust fungus development on the leaves was then determined.

Botrytis cinerea [1] = experiment: Activity against the gray mold pathogen Botrytis cinerea in the microtiter test; type: cell-based; conditions: microtiter plate, day 7
Botrytis cinerea [2] = experiment: Activity against Botrytis cinerea on bell peppers (greenhouse, protective spray); type: in vivo; conditions: bell pepper seedlings, sprayed 1 day before inoculation, rated after 5 days
Experimental: as §1, §2, §3, §4, §5, §6, §7
Bell pepper seedlings of the cultivar “Neusiedler Ideal Elite” were, after 2-3 leaves were well developed, sprayed to runoff point with an aqueous suspension in the active compound concentration stated below. […] After 5 days, the extent of the fungal infection on the leaves could be determined visually in %.

## CO/N=C(/C(=O)OC)c1ccccc1COc1ccccc1C [kresoxim-methyl, methyl(E)-methoxyimino[α-(o-tolyloxy)-o-tolyl]acetate]
Phytophthora infestans; 1 ppm
  Observed activity: 36%
Puccinia recondite; 4 ppm
  Observed activity: 0%
Puccinia recondite; 63 ppm
  Observed activity: 18%

## Cc1ccc(-c2c(Cl)nc(C#N)n2S(=O)(=O)N(C)C)cc1 [cyazofamid, 4-chloro-2-cyano-N,N-dimethyl-5-(4-methylphenyl)-1H-imidazole-1-sulfonamide]
Botrytis cinerea [1]; 1 ppm, 405 nm
  Observed activity: 0%
Botrytis cinerea [1]; concentration not printed (second line for cyazofamid)
  Observed activity: 0%

## COC(=O)NCc1cc(/C(C)=N/OCc2cccc(C)c2)ccc1Cl [I-B]
Phytophthora infestans; 0.25 ppm
  Observed activity: 4%
Phytophthora infestans; 4 ppm
  Observed activity: 5%
Phytophthora infestans; 8 ppm
  Observed activity: 27%
Phytophthora infestans; 32 ppm
  Observed activity: 35%
Phytophthora infestans; 125 ppm
  Observed activity: 57%
Botrytis cinerea [1]; 0.25 ppm, 405 nm
  Observed activity: 2%
Botrytis cinerea [1]; 1 ppm, 405 nm
  Observed activity: 40%
Botrytis cinerea [1]; 4 ppm, 405 nm
  Observed activity: 67%
Botrytis cinerea [2]; 16 ppm
  Observed activity: 10%
Botrytis cinerea [2]; 63 ppm
  Observed activity: 20%
Puccinia recondite; 16 ppm
  Observed activity: 6%

## manganese-ethylenebis(dithiocarbamate) zinc complex [mancozeb]
Botrytis cinerea [1]; 4 ppm, 405 nm
  Observed activity: 9%

## COc1ccc(C(=CC(=O)N2CCOCC2)c2ccc(Cl)cc2)cc1OC [dimethomorph, 3-(4-chlorophenyl)-3-(3,4-dimethoxyphenyl)-1-morpholin-4-ylpropenone]
Puccinia recondite; 2 ppm
  Observed activity: 0%
Puccinia recondite; 8 ppm
  Observed activity: 0%

## COC(=O)N(OC)c1ccccc1COc1ccn(-c2ccc(Cl)cc2)n1 [pyraclostrobin, methyl N-{2-[1-(4-chlorophenyl)-1H-pyrazol-3-yloxymethyl]phenyl}(N-methoxy)carbamate]
Botrytis cinerea [1]; 0.25 ppm, 405 nm
  Observed activity: 20%

## COCC(=O)N(c1c(C)cccc1C)C(C)C(=O)OC (racemic) [metalaxyl, methyl N-(methoxyacetyl)-N-(2,6-xylyl)-DL-alaninate]
Puccinia recondite; 16 ppm
  Observed activity: 0%

## O=[N+]([O-])c1cc(C(F)(F)F)c(Cl)c([N+](=O)[O-])c1Nc1ncc(C(F)(F)F)cc1Cl [fluazinam, 3-chloro-N-[3-chloro-2,6-dinitro-4-(trifluoromethyl)phenyl]-5-(trifluoromethyl)-2-pyridinamine]
Phytophthora infestans; 1 ppm
  Observed activity: 0%

## N#Cc1sc2c(=O)c3ccccc3c(=O)c=2sc1C#N [dithianon, 5,10-dioxo-5,10-dihydronaphtho[2,3-b][1,4]dithiin-2,3-dicarbonitrile]
Botrytis cinerea [2]; 63 ppm
  Observed activity: 10%

## OC(Cc1ccccc1Cl)(Cn1nc[nH]c1=S)C1(Cl)CC1 (centres unmarked) [prothioconazole, 2-[2-(1-chlorocyclopropyl)-3-(2-chlorophenyl)-2-hydroxypropyl]-2,4-dihydro[1,2,4]triazol-3-thione]
Phytophthora infestans; 8 ppm
  Observed activity: 0%
Phytophthora infestans; 32 ppm
  Observed activity: 46%

## O=C(Nc1ccccc1-c1ccc(Cl)cc1)c1cccnc1Cl [boscalid, 2-chloro-N-(4′-chlorbiphenyl-2-yl)nicotinamide]
Puccinia recondite; 16 ppm
  Observed activity: 0%

## Fc1ccc([C@]2(Cn3cncn3)O[C@H]2c2ccccc2Cl)cc1 (racemic) [epoxiconazole, (2RS, 3SR)-1-[3-(2-chlorophenyl)-2,3-epoxy-2-(4-fluorophenyl)propyl]-1H-1,2,4-triazole]
Phytophthora infestans; 32 ppm
  Observed activity: 9%
Phytophthora infestans; 125 ppm
  Observed activity: 31%
Botrytis cinerea [1]; 1 ppm, 405 nm
  Observed activity: 2%
